Tested on: BEAS-2B
Assay: Comprehensive gene expression analysis with Whole Human Genome DNA microarray after EP treatment
Assay type: cell-based
Description: Cells of the established normal human airway epithelial cell line BEAS-2B were used in the experiment. These cells were expansively cultured in 10% FBS RPMI-1640, and seeded at a density of 1×10^5/cm^2 on a 24-well plate. After 24 hours 0.1% FBS RPMI-1640 was substituted, and EP was administered to a final concentration of 0 or 1 mM (n=4). After 24 hours, the cells were used as the DNA microarray samples. RNA was extracted using a QIAGEN RNeasy Mini Kit. The DNA microarray test was performed using a Whole Human Genome DNA microarray 4×44K (Agilent), and the necessary labeling reagents and the like for the DNA microarray test were all from Agilent. The DNA microarray test data were analyzed statistically with GeneSpring (Agilent) dedicated analysis software, and gene function analysis (Gene Ontology (GO) analysis) was performed based on differential expression. The purpose of the GO analysis is to determine stochastically the degree to which gene sets with statistically significant differential expression correspond to known functional classification gene sets. […] The p-value is calculated according to the following formula.

[1] = probe A_23_P306987, 1 mM EP, 24 h
[2] = probe A_23_P315815, NM_004495, EP vs control
[3] = probe A_23_P326913, BC019095, EP vs control
[4] = probe A_23_P336611, 1 mM EP, 24 h
[5] = probe A_23_P337242, 1 mM EP, 24 h
[6] = probe A_23_P344421, 1 mM EP, 24 h
[7] = probe A_23_P346311, 1 mM EP, 24 h
[8] = probe A_23_P358944, 1 mM EP, 24 h
[9] = probe A_23_P360777, NM_013960, EP vs control
[10] = probe A_23_P360797, 1 mM EP, 24 h
[11] = probe A_23_P371727, 1 mM EP, 24 h
[12] = probe A_23_P373521, 1 mM EP, 24 h
[13] = probe A_23_P382775, 1 mM EP, 24 h
[14] = probe A_23_P383278, NM_023078, EP vs control
[15] = probe A_23_P404887, 1 mM EP, 24 h
[16] = probe A_23_P407012, NM_172210, EP vs control
[17] = probe A_23_P411296, 1 mM EP, 24 h
[18] = probe A_23_P426305, NM_003734, EP vs control
[19] = probe A_23_P500034, 1 mM EP, 24 h
[20] = probe A_23_P502553, 1 mM EP, 24 h
[21] = probe A_23_P2094013, 1 mM EP, 24 h
[22] = probe A_24_P4661, 1 mM EP, 24 h
[23] = probe A_24_P12401, NM_001025366, EP vs control
[24] = probe A_24_P18105, NM_032466, EP vs control
[25] = probe A_24_P38363, 1 mM EP, 24 h
[26] = probe A_24_P60930, NM_006129, EP vs control
[27] = probe A_24_P83815, 1 mM EP, 24 h
[28] = probe A_24_P122921, 1 mM EP, 24 h
[29] = probe A_24_P135322, 1 mM EP, 24 h
[30] = probe A_24_P139152, 1 mM EP, 24 h
[31] = probe A_24_P139993, 1 mM EP, 24 h
[32] = probe A_24_P175519, NM_003329, EP vs control
[33] = probe A_24_P179400, NM_001025370, EP vs control
[34] = probe A_24_P193911, 1 mM EP, 24 h
[35] = probe A_24_P200000, NM_182915, EP vs control
[36] = probe A_24_P207479, 1 mM EP, 24 h
[37] = probe A_24_P209047, NM_000879, EP vs control

NCCOP(=O)(O)O [EP, Ethanolamine phosphate]
SOX7 expression R: Ratio to control [1]: 0.338 times
SOX7 expression log2 [ratio] [1]: −1.568
NRG1 gene expression, R* ratio to control [2]: 0.666 times
NRG1 gene expression, log2 [ratio] [2]: −0.586
PRUNE2 gene expression, R* ratio to control [3]: 1.441 times
PRUNE2 gene expression, log2 [ratio] [3]: 0.527
APAF1 expression R*: Ratio to control [4]: 0.420 times
APAF1 expression log2 [ratio] [4]: −1.253
TGFBR2 expression R*: Ratio to control [5]: 1.630 times
TGFBR2 expression log2 [ratio] [5]: 0.705
ROBO4 expression R*: Ratio to control [6]: 1.633 times
ROBO4 expression log2 [ratio] [6]: 0.707
BAX expression R*: Ratio to control [7]: 0.511 times
BAX expression log2 [ratio] [7]: −0.969
PML expression R: Ratio to control [8]: 0.586 times
PML expression log2 [ratio] [8]: −0.770
NRG1 gene expression, R* ratio to control [9]: 0.651 times
NRG1 gene expression, log2 [ratio] [9]: −0.620
NTF3 expression R: Ratio to control [10]: 0.492 times
NTF3 expression log2 [ratio] [10]: −1.024
CKS2 expression R*: Ratio to control [11]: 1.510 times
CKS2 expression log2 [ratio] [11]: 0.595
HAND2 expression R*: Ratio to control [12]: 1.971 times
HAND2 expression log2 [ratio] [12]: 0.979
BBC3 expression R*: Ratio to control [13]: 0.315 times
BBC3 expression log2 [ratio] [13]: −1.566
PYCRL gene expression, R* ratio to control [14]: 1.441 times
PYCRL gene expression, log2 [ratio] [14]: 0.527
BIK expression R*: Ratio to control [15]: 0.298 times
BIK expression log2 [ratio] [15]: −1.743
CSF1 gene expression, R* ratio to control [16]: 0.593 times
CSF1 gene expression, log2 [ratio] [16]: −0.753
CEBPB expression R*: Ratio to control [17]: 0,383 times
CEBPB expression log2 [ratio] [17]: −1.385
AOC3 gene expression, R* ratio to control [18]: 1.540 times
AOC3 gene expression, log2 [ratio] [18]: 0.623
GL12 expression R*: Ratio to control [19]: 2.060 times
GL12 expression log2 [ratio] [19]: 1.043
TRIM35 expression R*: Ratio to control [20]: 0.618 times
TRIM35 expression log2 [ratio] [20]: −0.695
CASP10 expression R*: Ratio to control [21]: 0.552 times
CASP10 expression log2 [ratio] [21]: −0.857
E124 expression R*: Ratio to control [22]: 0.652 times
E124 expression log2 [ratio] [22]: −0.618
VEGFA gene expression, R* ratio to control [23]: 0.540 times
VEGFA gene expression, log2 [ratio] [23]: −0.889
ASPH gene expression, R* ratio to control [24]: 1.560 times
ASPH gene expression, log2 [ratio] [24]: 0.642
MYC expression R*: Ratio to control [25]: 1.686 times
MYC expression log2 [ratio] [25]: 0.754
BMP1 gene expression, R* ratio to control [26]: 0.613 times
BMP1 gene expression, log2 [ratio] [26]: −0.706
NLRP1 expression R*: Ratio to control [27]: 0.558 times
NLRP1 expression log2 [ratio] [27]: −0.841
BCL2L11 expression R*: Ratio to control [28]: 0.636 times
BCL2L11 expression log2 [ratio] [28]: −0.652
NRP1 expression R*: Ratio to control [29]: 1.664 times
NRP1 expression log2 [ratio] [29]: 0.735
COL8A1 expression R*: Ratio to control [30]: 1.703 times
COL8A1 expression log2 [ratio] [30]: 0.768
CASP10 expression R*: Ratio to control [31]: 0.609 times
CASP10 expression log2 [ratio] [31]: −0.716
TXN gene expression, R* ratio to control [32]: 1.438 times
TXN gene expression, log2 [ratio] [32]: 0.524
VEGFA gene expression, R* ratio to control [33]: 0.650 times
VEGFA gene expression, log2 [ratio] [33]: −0.621
MAPRE2 expression R*: Ratio to control [34]: 1.666 times
MAPRE2 expression log2 [ratio] [34]: 0.736
STEAP3 gene expression, R* ratio to control [35]: 2.009 times
STEAP3 gene expression, log2 [ratio] [35]: 1.007
DEDD2 expression R*: Ratio to control [36]: 0.597 times
DEDD2 expression log2 [ratio] [36]: −0.744
IL5 gene expression, R* ratio to control [37]: 0.304 times
IL5 gene expression, log2 [ratio] [37]: −1.719

From US20150164762A1, “USE OF ETHANOLAMINE PHOSPHATE” (priority 2012, published 2015)
